Source: the Deep4Chem optical property database
Blank lines part the entries; values can stand above or below the molecule they belong to.

Experiment: solvent given as SMILES

SMILES: CCCCOC(=O)c1cc(Cl)c2c3c(Cl)cc4c5c(cc(Cl)c(c6c(Oc7ccc(C(=O)OC)cc7)cc(C(=O)OCCCC)c1c26)c53)C(=O)N(c1c(C(C)C)cccc1C(C)C)C4=O
- absorption maximum (in Cc1ccccc1): 507 nm

- absorption maximum (in ClC(Cl)Cl): 373 nm
SMILES: CCCCCCCCCCCCc1sc(CCCCCC)c2c3cc(CCCCCC)sc3c3sc(CCCCCC)cc3c12

SMILES: CCCCC(CC)CN1C(=O)c2cccc3c(C#Cc4ccc(N(c5ccccc5)c5ccc(C#Cc6ccc7c8c(cccc68)C(=O)N(CC(CC)CCCC)C7=O)cc5)cc4)ccc(c23)C1=O (stereo unspecified)
- absorption maximum (in C1CCCCC1): 453 nm
- absorption maximum (in C1CCOC1): 451 nm
- absorption maximum (in CC#N): 456 nm
- absorption maximum (in Cc1ccccc1): 452 nm
- absorption maximum (in ClC(Cl)Cl): 466 nm

- absorption maximum (in ClCCl): 346 nm
SMILES: F[B-]1(F)Oc2ccc3ccccc3c2-c2c3c(c4c([n+]21)CCc1ccccc1-4)CCc1ccccc1-3

- absorption maximum (in CO): 387 nm
SMILES: O=C(O)c1ccc(-c2cnc(-c3ccc(N(c4ccccc4)c4ccccc4)cc3)s2)cc1

SMILES: O=C1c2cc(-n3c4ccccc4c4ccccc43)ccc2S(=O)(=O)c2ccc(-n3c4ccccc4c4ccccc43)cc21
- absorption maximum (in C1CCOC1): 406 nm
- absorption maximum (in CCCCCC): 406 nm
- absorption maximum (in Cc1ccccc1): 406 nm
- absorption maximum (in ClC(Cl)Cl): 406 nm
- absorption maximum (in ClCCl): 406 nm

- absorption maximum (in ClC(Cl)Cl): 634 nm
SMILES: F[B-]1(F)n2c(cc3ccc4ccccc4c32)C(c2ccc(I)cc2)=C2C=C3CCc4ccccc4C3=[N+]21

SMILES: CCC1=C(C)C2=Cc3c(I)c(I)c(I)n3[B-](F)(F)[N+]2=C1C
- absorption maximum (in C1CCCCC1): 543.5 nm
- absorption maximum (in CC(C)=O): 528 nm
- absorption maximum (in CCO): 536 nm
- absorption maximum (in CCOC(C)=O): 532 nm
- absorption maximum (in CO): 531.5 nm
- absorption maximum (in OCC(F)(F)F): 523 nm

- absorption maximum (in CCO): 361 nm
SMILES: O=c1c2cc(F)c(N3CCOCC3)cc2sc2cc(N3CCOCC3)c(F)cc12

SMILES: O=CC1=C(c2ccc(-c3cccs3)s2)CCC1
- absorption maximum (in C1CCOC1): 377 nm
- absorption maximum (in CC#N): 374 nm
- absorption maximum (in CCCCCC): 366 nm
- absorption maximum (in CCO): 386 nm
- absorption maximum (in OCCOCCO): 377 nm
- absorption maximum (in c1ccncc1): 385 nm

- absorption maximum (in C1COCCO1): 438 nm
SMILES: CC(=O)Nc1ccc(C2=C/C(=C\c3ccc([N+](=O)[O-])cc3)C(=O)O2)cc1

- absorption maximum (in ClC(Cl)Cl): 765 nm
SMILES: COc1ccc2c(c1)O[B-]13Oc4cc(OC)ccc4-c4cc(-c5ccccc5)c(n41)N=C1C(c4ccccc4)=CC2=[N+]13 (stereo unspecified)

- absorption maximum (in C1CCOC1): 353 nm
- absorption maximum (in C1COCCO1): 353 nm
- absorption maximum (in CC#N): 350 nm
- absorption maximum (in CCOC(C)=O): 356 nm
- absorption maximum (in CN(C)C=O): 341 nm
- absorption maximum (in ClC(Cl)Cl): 357 nm
SMILES: O=C(O)c1ccccc1Nc1ccccc1

- absorption maximum (in CCCCCC): 458 nm
- absorption maximum (in CO): 456 nm
- absorption maximum (in CS(C)=O): 463 nm
- absorption maximum (in ClC(Cl)Cl): 460 nm
- absorption maximum (in ClCCl): 463 nm
SMILES: O=S(=O)(/N=c1\oc2cccc3c4c(-c5ccccc5)oc5cccc(c(c1-c1ccccc1)c23)c54)C(F)(F)F

- absorption maximum (in ClCCl): 598 nm
SMILES: c1ccc(CSc2c3ccc(=[N+]4CCCCC4)cc-3oc3cc(N4CCCCC4)ccc23)cc1

SMILES: O=[N+]([O-])c1ccc(NCCN(Cc2c3ccccc3cc3ccccc23)c2ccc([N+](=O)[O-])cc2[N+](=O)[O-])c([N+](=O)[O-])c1
- absorption maximum (in C1CCCCC1): 355 nm
- absorption maximum (in C1CCOC1): 372 nm
- absorption maximum (in CC#N): 371 nm
- absorption maximum (in CC(C)=O): 371 nm
- absorption maximum (in CCO): 368 nm
- absorption maximum (in CN(C)C=O): 267 nm
- absorption maximum (in CO): 369 nm
- absorption maximum (in ClC(Cl)Cl): 355 nm

SMILES: CC(C)(C)c1ccc2c(c1)c1cc3c4cc(C(C)(C)C)ccc4c4c5c6ccc(C(C)(C)C)cc6c6cc7c8cc(C(C)(C)C)ccc8c8c2c1c(c34)c(c78)c65
- absorption maximum (in CCCCCC): 542.15 nm
- absorption maximum (in CCOCC): 541.57 nm
- absorption maximum (in Cc1ccccc1): 545.85 nm

- absorption maximum (in CCO): 323 nm
SMILES: Cc1cc(=O)oc2cc(O)ccc12

- absorption maximum (in ClCCl): 379 nm
SMILES: COc1ccc(-c2ccc(/C=C/c3cnc4ccccc4n3)cc2)cc1

- absorption maximum (in ClCCl): 341 nm
SMILES: COc1ccc(-c2cnc3cccc(-c4ccccc4)n23)cc1
